Assay results as given in paper PMC9552147 (Nature Communications, 2022).
“And” between values parts separate entries of the source, which are not always exact repeats. Identical values can stand only once.

Tested on: M. tuberculosis resistant mutant (lysS S491 insertion)
Format: cell-based, Mycobacterium tuberculosis

| SMILES | fold resistance of the resistant mutant strain compared to wild-type H37Rv (MIC) | Mutant (S491)MIC | Mutant (S491)MIC, Ave |
| --- | --- | --- | --- |
| NNC(=O)c1ccncc1 [isoniazid] | equivalent sensitivity |  |  |
| Nc1cc2c(c(F)n1)C(=O)N(C1CCCCC1)C2 [Compound 2] |  | 0.11 µM and 0.095 µM | 0.10 µM |
